Counter-ions that a name gives are not always drawn. Like-named read-outs stand apart in the source and are kept apart here.
Assays:
serum interferon = assay: animal or person; type: in vivo, ICR female mice; conditions: Mus musculus, L929, ip, 20 h, read-out: Plaque inhibition
[1] = Acute toxicity (50% lethal dose); conditions: mouse, in vivo, ddY male mice 20-25 g
Excerpt: In order to investigate acute toxicity of the ingredients of the present invention, 50% lethal dose of each ingredient was obtained by intravenous and intraperitoneal administration thereof by ddY male mice weighing 20-25 g. From the results shown in Table 5, it is understood that the ingredients had high safety margin.

[2] = system: vaccinia virus (DIE strain); type: in vivo, ICR female mice; conditions: 8th day after inoculation
Human fibroblast cells = assay: cells; type: cell-based; conditions: read-out: Inhibition of cytolysis
[3] = ip, intraperitoneal, read-out: 50% Lethal dose, intraperitoneally administered
[4] = intravenous, read-out: 50% Lethal dose, intravenously administered

Row | Compound | inhibition at 20 mg/kg (serum interferon) | inhibition at 40 mg/kg (serum interferon) | LD50 [1, 3] | LD50 [1, 4] | Inhibition of tail lesion ([2]; 20 mg/kg i.p., consecutively dosed (6 times)) | Inhibition of tail lesion ([2]; 20 mg/kg i.p., dosed one time) | Inhibition of tail lesion ([2]; 20 mg/kg p.o., consecutively dosed (6 times)) | Inhibition of tail lesion ([2]; 30 mg/kg i.p., dosed one time) | Inhibition of tail lesion ([2]; 30 mg/kg s.c., dosed one time) | Inhibition of tail lesion ([2]; 40 mg/kg i.p., consecutively dosed (6 times)) | Inhibition of tail lesion ([2]; 40 mg/kg i.p., dosed one time) | Inhibition of tail lesion ([2]; 50 mg/kg p.o., dosed one time) | inhibition at 5 µg/disc (Human fibroblast cells) | Inhibition of tail lesion ([2]; 40 mg/kg p.o., dosed one time) | Inhibition of tail lesion ([2]; 100 mg/kg p.o., dosed one time)
1 | CC(C)=CCCC(C)=CCCC(C)=CCCC(C)=CCCC(C)=CCCC(C)=CCCC(C)=CCCC(C)=CCCC(C)=CCCC(C)=CCN [Decaprenylamine hydrochloride] | 47.1% | 83% | 1000 mg/kg | 39.5 mg/kg | 77.4% | 76.1% | 56.8% | 68.7% | 69.7% | 88.2% | 79.6% | 24.1% | 64.9% |  | 
2 | CC(C)=CCCC(C)=CCCC(C)=CCCC(C)=CCCC(C)=CCCC(C)=CCCC(C)=CCCC(C)=CCCC(C)=CCN [Solanesylamine hydrochloride, solanesylamine hydrochloride] | 81% | 79.7% | > 500 mg/kg | 32.3 mg/kg |  | 35.7% |  | 72.1% | 23.2% |  |  |  | 55.4% | 40.5% | 
3 | CC(C)=CCCC(C)=CCCC(C)=CCCC(C)=CCCC(C)=CCCC(C)=CCCC(C)=CCCC(C)=CCCC(C)=CCCC(C)=CCCC(C)=CCN [Undecaprenylamine hydrochloride] |  | 70.3% | > 1000 mg/kg | 18 mg/kg |  | 52.4% |  | 40.5% |  |  |  |  | 83.3% |  | 45.6%
